Source: PubChem BioAssay AID1845206 (Molecular Pharmacology Branch, DTP, NCI, 2023)

Test system: NCI-H1618 multicellular tumor spheroid viability
Assay: Anticancer human tumor NCI-H1618 cell line growth inhibition;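 also: spheroids exposed to agents for 7 days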
Conditions: for IC50: curve of first compound; for viability, T/C: stronger effect = lower value
Summary of the method: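 Single agents and combinations were tested on spheroids built from tumor cells plus HUVEC and hMSC, at half-log dilutions starting at or near clinical Cmax, else 10 microM; final DMSO 0.25% (v/v).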

[1] = second compound 30 pM, first compound 0.00949 µM
[2] = second compound 30 pM, first compound 0.03 µM
[3] = second compound 30 pM, first compound 0.0949 µM
[4] = second compound 30 pM, first compound 0.3 µM
[5] = second compound 30 pM, first compound 0.949 µM
[6] = second compound 30 pM, first compound 3 µM
[7] = second compound 94.9 pM, first compound 0.00949 µM
[8] = second compound 94.9 pM, first compound 0.03 µM
[9] = second compound 94.9 pM, first compound 0.0949 µM
[10] = second compound 94.9 pM, first compound 0.3 µM
[11] = second compound 94.9 pM, first compound 0.949 µM
[12] = second compound 94.9 pM, first compound 3 µM
[13] = second compound 0.0003 µM, first compound 0.00949 µM
[14] = second compound 0.0003 µM, first compound 0.03 µM
[15] = second compound 0.0003 µM, first compound 0.0949 µM
[16] = second compound 0.0003 µM, first compound 0.3 µM
[17] = second compound 0.0003 µM, first compound 0.949 µM
[18] = second compound 0.0003 µM, first compound 3 µM
[19] = second compound 0.000949 µM, first compound 0.00949 µM
[20] = second compound 0.000949 µM, first compound 0.03 µM
[21] = second compound 0.000949 µM, first compound 0.0949 µM
[22] = second compound 0.000949 µM, first compound 0.3 µM
[23] = second compound 0.000949 µM, first compound 0.949 µM
[24] = second compound 0.000949 µM, first compound 3 µM
[25] = second compound 0.003 µM, first compound 0.00949 µM
[26] = second compound 0.003 µM, first compound 0.03 µM
[27] = second compound 0.003 µM, first compound 0.0949 µM
[28] = second compound 0.003 µM, first compound 0.3 µM
[29] = second compound 0.003 µM, first compound 0.949 µM
[30] = second compound 0.003 µM, first compound 3 µM

| SMILES | IC50 (second compound 30 pM) [nM] | IC50 (second compound 94.9 pM) [nM] | IC50 (second compound 0.0003 µM) [nM] | IC50 (second compound 0.000949 µM) [nM] | IC50 (second compound 0.003 µM) [nM] | viability, T/C [3] [%] | viability, T/C [4] [%] | viability, T/C [5] [%] | viability, T/C [6] [%] | viability, T/C [9] [%] | viability, T/C [10] [%] | viability, T/C [11] [%] | viability, T/C [12] [%] | viability, T/C [15] [%] | viability, T/C [16] [%] | viability, T/C [17] [%] | viability, T/C [18] [%] | viability, T/C [21] [%] | viability, T/C [22] [%] | viability, T/C [23] [%] | other results |
| --- | --- | --- | --- | --- | --- | --- | --- | --- | --- | --- | --- | --- | --- | --- | --- | --- | --- | --- | --- | --- | --- |
| CNCc1ccc(-c2cc(-c3nc(-c4ccc(S(=O)(=O)C(C)C)cc4)cnc3N)on2)cc1 + COc1cc2c(cc1O)CCNC21CSC2c3c(OC(C)=O)c(C)c4c(c3C(COC1=O)N1C(O)C3Cc5cc(C)c(OC)c(O)c5C(C21)N3C)OCO4 | 224 | 130 | < 9.49 | < 9.49 | < 9.49 | 110 | 31.5 | 5.25 | 3.91 | 59.5 | 22.3 | 2.88 | 2.64 | 58.8 | 12.6 | 2.49 | 4.13 | 6.24 | 3.07 | 3.69 | viability, T/C [1]: 103%; viability, T/C [2]: 100%; viability, T/C [7]: 98.5%; viability, T/C [8]: 93.6%; viability, T/C [13]: 11.2%; viability, T/C [14]: 17.8%; viability, T/C [19]: 3.91%; viability, T/C [20]: 15.3%; viability, T/C [24]: 2.71%; viability, T/C [25]: 3.93%; viability, T/C [26]: 6.21%; viability, T/C [27]: 4.41%; viability, T/C [28]: 3.43%; viability, T/C [29]: 2.55%; viability, T/C [30]: 0.78% |
| Cn1ncnc1[C@H]1c2n[nH]c(=O)c3cc(F)cc(c23)N[C@@H]1c1ccc(F)cc1 + COc1cc2c(cc1O)CCNC21CSC2c3c(OC(C)=O)c(C)c4c(c3C(COC1=O)N1C(O)C3Cc5cc(C)c(OC)c(O)c5C(C21)N3C)OCO4 | 45.4 | < 9.49 | < 9.49 | < 9.49 | < 9.49 | 53 | 10.2 | 2.52 | 3.76 | 3.24 | 2.22 | 2.54 | 4.25 | 2.76 | 2.88 | 3.67 | 2.53 | 3.71 | 4.08 | 3.69 | viability, T/C [1]: 95.5%; viability, T/C [2]: 46.9%; viability, T/C [7]: 44.3%; viability, T/C [8]: 37.8%; viability, T/C [13]: 10.6%; viability, T/C [14]: 5.28%; viability, T/C [19]: 4.52%; viability, T/C [20]: 4.93%; viability, T/C [24]: 4.06%; viability, T/C [25]: 2.91%; viability, T/C [26]: 4.29%; viability, T/C [27]: 5.46%; viability, T/C [28]: 2.85%; viability, T/C [29]: 3.44%; viability, T/C [30]: 2.38% |
| O=C(c1cc(Cc2n[nH]c(=O)c3ccccc23)ccc1F)N1CCN(C(=O)C2CC2)CC1 + COc1cc2c(cc1O)CCNC21CSC2c3c(OC(C)=O)c(C)c4c(c3C(COC1=O)N1C(O)C3Cc5cc(C)c(OC)c(O)c5C(C21)N3C)OCO4 | 5700 | 1830 | < 94.9 | < 94.9 | < 94.9 | 103 | 97.2 | 98.2 | 88.1 | 85.7 | 76.1 | 96.7 | 22.7 | 11.3 | 2.62 | 33.6 | 22 | 4.82 | 3.59 | 4.37 | viability, T/C (second compound 30 pM, first compound 9.49 µM): 19.8%; viability, T/C (second compound 30 pM, first compound 30 µM): 5.66%; viability, T/C (second compound 94.9 pM, first compound 9.49 µM): 11.6%; viability, T/C (second compound 94.9 pM, first compound 30 µM): 5.96%; viability, T/C (second compound 0.0003 µM, first compound 9.49 µM): 3.44%; viability, T/C (second compound 0.0003 µM, first compound 30 µM): 6.61%; viability, T/C [24]: 3.86%; viability, T/C (second compound 0.000949 µM, first compound 9.49 µM): 3.51%; viability, T/C (second compound 0.000949 µM, first compound 30 µM): 3.9%; viability, T/C [27]: 2.74%; viability, T/C [28]: 2.65%; viability, T/C [29]: 3.06%; viability, T/C [30]: 3.24%; viability, T/C (second compound 0.003 µM, first compound 9.49 µM): 3.55%; viability, T/C (second compound 0.003 µM, first compound 30 µM): 3.23% |
